≈ marks a conversion by molar mass, not a printed value.
What was measured:
[1] = tested on: multiple C. neoformans/C. gattii; test: Microdilution assay, summary for Cryptococcus species; format: cell-based
Experimental: Cryptococcus and Candida species were cultured in yeast extract-peptone-dextrose (YPD) medium (containing 1% yeast extract, 2% peptone, 2% glucose, and optionally 2% agar for preparation of an agar plate). Aspergillus, Fusarium, and Trichophyton species were cultured on potato dextrose agar (PDA) plate (containing 2% potato infusion, […], and 1.5% agar). A microdilution assay was performed to determine minimum inhibitory concentration (MIC), minimum fungicidal concentration (MFC), and fractional inhibitory concentration (FIC) index (FICI) using RPMI 1640 medium buffered with MOPS. […]
To investigate the inhibitory effects of eltrombopag on the growth of fungi, microdilution assays (based on the CLSI standards M27-A3 and M38-A2) were performed with multiple pathogenic yeasts and filamentous fungi including Cryptococcus, Candida, Aspergillus, Fusarium, and Trichophyton (TABLE 1). […] Thereafter, 3 μL of the fungal culture from each well of the 96-well plates was spotted onto eltrombopag-free YPD (for yeasts) or PDA (for filamentous fungi) agar plates, which were then incubated at 35° C. for 48 hours to examine colony formation Minimum fungicidal concentration (MFC) was determined to be the lowest drug concentration at which no colonies formed. […]

C. neoformans H99 [2] = test: Growth kinetics in RPMI 1640 (cell density); format: cell-based, Cryptococcus neoformans
Experimental: To study the inhibitory effects of eltrombopag on the growth of Cryptococcus, C. neoformans H99 cells were cultured overnight at 30° C. and then washed twice with double-distilled water. The cells were diluted to 0.0005 OD600/mL with RPMI 1640 medium, and 5 mL of the cell suspension was treated with eltrombopag at 0.5, 0.25, 0.125, 0.06, or 0 mg/L and incubated at 37° C. with shaking at 150 rpm for 4 days. The cell density of the suspensions was measured every 12 hours with a SpectraMax190 microplate reader (Molecular Devices), and growth curves were plotted using Prism 5.03 (GraphPad Software, San Diego, Calif., USA). The experiments were performed in triplicate, and the results were presented as mean±standard deviation.

C. neoformans H99 [3] = test: Disk diffusion susceptibility assay; format: cell-based, Cryptococcus neoformans; conditions: 10 μg per disk; 25° C., 30° C. or 37° C., 48 hours
Experimental: (§1) A disk diffusion susceptibility assay was performed to further investigate the fungistatic activity of eltrombopag at different temperatures. Briefly, C. neoformans […] or C. deuterogattii 8265 was cultured overnight at 30° C., and 100 μL of the culture (at an OD600 of about 0.1) was spread on RPMI 1640 agar plates. Paper disks (with a diameter of 6 mm) were then placed on these agar plates, and either 10 μg eltrombopag (dissolved in 5 μL DMSO) or 5 μL DMSO (control) was added to each disk. The agar plates were incubated at 25° C., 30° C., or 37° C. for 48 hours and photographed.

C. deuterogattii 8265 = test: Disk diffusion susceptibility assay; format: cell-based, Cryptococcus deuterogattii; conditions: 10 μg per disk; 25° C., 30° C. or 37° C., 48 hours
Experimental: as §1

C. neoformans H99 [4] = test: XTT-reduction assay of biofilm metabolic activity; format: cell-based, Cryptococcus neoformans
Experimental: Cryptococcus biofilms, which are composed of Cryptococcus cells and extracellular matrix, enhance the tolerance of Cryptococcus to antifungal agents (such as amphotericin B) and host defense mechanisms. To assess whether eltrombopag impacts biofilm formation in Cryptococcus, an XTT-reduction assay was used to measure the metabolic activity of C. neoformans cells treated with eltrombopag at 37° C. Briefly, C. neoformans […] cells were cultured in YPD medium at 30° C. overnight. The cells were washed twice with phosphate buffered saline (PBS) and resuspended in RPMI 1640 medium with or without eltrombopag at the indicated concentrations. The cell suspension (0.0005 OD600/mL) was added to a 96-well polystyrene plate and incubated at 37° C. for 24 or 48 hours. […] After incubation, the cells were washed three times with PBS and subjected to XTT reduction assay to quantify formazan formation by measuring the light absorbance at 492 nm. The experiments were performed in triplicate, and the results were presented as mean±standard deviation. Statistical significance for the data sets was determined using a two-tailed t test.

C. deuterogattii R265 = test: Capsule size assay (India ink); format: cell-based, Cryptococcus deuterogattii; conditions: 0.06 mg/L, 37° C., 48 hours, versus no eltrombopag treatment
Experimental: (§2) Cryptococcus and Candida species were cultured in yeast extract-peptone-dextrose (YPD) medium (containing 1% yeast extract, 2% peptone, 2% glucose, and optionally 2% agar for preparation of an agar plate). Aspergillus, Fusarium, and Trichophyton species were cultured on potato dextrose agar (PDA) plate (containing 2% potato infusion, […], and 1.5% agar). A microdilution assay was performed to determine minimum inhibitory concentration (MIC), minimum fungicidal concentration (MFC), and fractional inhibitory concentration (FIC) index (FICI) using RPMI 1640 medium buffered with MOPS. Minimal medium (containing 15 mM glucose, 10 mM magnesium sulfate, 29.4 mM potassium dihydrogen phosphate, 13 mM glycine, and 3 μM thiamine hydrochloride; pH 5.5) was used for capsule size assay and melanization assay.
Cryptococcus capsule, the structure attached to the outer surface of the cell wall and mainly composed of polysaccharides, can increase the resistance of Cryptococcus to host immune response (such as phagocytosis by macrophages) and harsh conditions (such as extreme acidity or alkalinity, high CO2 levels, or iron deprivation). To test whether eltrombopag affects capsule formation in Cryptococcus, C. neoformans H99 and C. deuterogattii R265 cells were cultured overnight in YPD media at 30° C. […] Statistical significance for the data sets was determined using a two-tailed t test.

C. neoformans H99 [5] = test: Melanization assay (L-DOPA); format: cell-based, Cryptococcus neoformans; conditions: 0.03 mg/L (¼ MIC) or 0.06 mg/L (½ MIC); 1 mM L-DOPA, 30° C.
Experimental: as §2
Melanin protects Cryptococcus from toxic free radicals produced by the host defense system, and thus melanin production is important for the pathogenicity of Cryptococcus. To study whether eltrombopag has an effect on melanin production in Cryptococcus, 5×10^4 C. neoformans H99 cells were cultured in minimal medium (abbreviated as MM) with or without 1 mM L-DOPA in the presence or absence of eltrombopag. The flasks containing the cultures were wrapped in foil to prevent L-DOPA auto-polymerization. […]

Structure (SMILES): CC1=NN(c2ccc(C)c(C)c2)C(=O)/C1=N\Nc1cccc(-c2cccc(C(=O)O)c2)c1O [eltrombopag]
- MIC ([1]; 35° C.): ~0.125 µg/mL (≈ 0.283 µM)
- MFCs ([1]; Cryptococcus species): higher than 64 mg/L
- growth kinetics (cell density) (C. neoformans H99 [2]; 0.06 mg/L): did not affect the growth kinetics
- growth kinetics (cell density) (C. neoformans H99 [2]; 0.25 mg/L or 0.5 mg/L, 37° C., 96 hours): static growth of C. neoformans was maintained
- growth kinetics (cell density) (C. neoformans H99 [2]; 0.5, 0.25, 0.125, 0.06 mg/L, 37° C., 4 days): inhibited the growth of C. neoformans in a dose-dependent manner
- inhibition zones (C. neoformans H99 [3]): significantly larger inhibition zones were observed at 37 °C
- inhibition zones (C. deuterogattii 8265): significantly larger inhibition zones were observed at 37 °C
- reduction of metabolic activity compared to the control group (C. neoformans H99 [4]; 0.125 mg/L, 37° C., 24 hours): more than 70%
- biofilm formation (metabolic activity, OD492) (C. neoformans H99 [4]; two-fold serially diluted from 4 to 0.015 mg/L, 48 hours): inhibited the formation of C. neoformans biofilms in a dose-dependent manner
- capsule size (C. deuterogattii R265): capsule size significantly reduced
- melanin production (C. neoformans H99 [5]): melanin production in C. neoformans reduced

Reference: patent US11160790B2, “Method of inhibiting Cryptococcus growth using eltrombopag” (priority 2019, dated 2021)
